Reference: publication PMC11938273 (Journal of Chemical Information and Modeling, 2025)

Settings: in vivo; cited from earlier work
For `COCC1=C(C(=O)OC)[C@H](c2ccc(F)c(F)c2)N(C(=O)NCCCN2CCC(c3cccc(NC(C)=O)c3)CC2)C(=O)N1` [SNAP7941, methyl 3-((3-(4-(3-acetamidophenyl)piperidin-1-yl)propyl)carbamoyl)-4-(3,4-difluorophenyl)-6-(methoxymethyl)-2-oxo-1,2,3,4-tetrahydropyrimidine-5-carboxylate], the CNS status is listed as “Efflux transporter substrate”. In the case of `Cc1nc2n(c(=O)c1CCN1CCC(C(=O)c3ccc(F)cc3)CC1)CCS2` [Setoperone, 6-(2-(4-(4-Fluorobenzoyl)piperidin-1-yl)ethyl)-7-methyl-2H-thiazolo[3,2-a]pyrimidin-5(3H)-one], the CNS status is given as “Positive”. In the case of `N[C@@H](CC(=O)N1CCn2c(nnc2C(F)(F)F)C1)Cc1cc(F)c(F)cc1F` [Sitagliptin, (3R)-3-Amino-1-[3-(trifluoromethyl)-5,6-dihydro[1,2,4]triazolo[4,3-a]pyrazin-7(8H)-yl]-4-(2,4,5-trifluorophenyl)-1-butanone], the CNS status is given as “Negative”. For `CC(C)NCC(O)c1ccc(NS(C)(=O)=O)cc1` (stereo not shown) [Sotalol, N-{4-[1-Hydroxy-2-(isopropylamino)ethyl]phenyl}methanesulfonamide], the CNS status is given as “Negative”. In the case of `COc1cc2c(cc1OC)CN(CCc1ccc(NC(=O)c3cc(OC)c(OC)cc3NC(=O)c3cnc4ccccc4c3)cc1)CC2` [Tariquidar, N-[2-({4-[2-(6,7-Dimethoxy-3,4-dihydro-2(1H)-isoquinolinyl)ethyl]phenyl}carbamoyl)-4,5-dimethoxyphenyl]-3-quinolinecarboxamide], the CNS status is listed as “Efflux transporter substrate”. In the case of `COc1cc([C@@H]2c3cc4c(cc3[C@@H](O[C@@H]3O[C@@H]5CO[C@@H](c6cccs6)O[C@H]5[C@H](O)[C@H]3O)[C@H]3COC(=O)[C@H]23)OCO4)cc(OC)c1O` [Teniposide, (5S,5aR,8aR,9R)-9-(4-Hydroxy-3,5-dimethoxyphenyl)-8-oxo-5,5a,6,8,8a,9-hexahydrofuro[3′,4′:6,7]naphtho[2,3-d][1,3]dioxol-5-yl 4,6-O-(2-thienylmethylene)-β-D-glucopyranoside], the CNS status is given as “Efflux transporter substrate”. In the case of `Cc1ccc(C(=O)c2cc(O)c(O)c([N+](=O)[O-])c2)cc1` [Tolcapone, (3,4-dihydroxy-5-nitrophenyl)(p-tolyl)methanone], the CNS status is given as “Negative”. In the case of `CC[C@]1(O)C[C@@H]2CN(CCc3c([nH]c4ccccc34)[C@@](C(=O)OC)(c3cc4c(cc3OC)N(C)[C@H]3[C@@](O)(C(=O)OC)[C@H](OC(C)=O)[C@]5(CC)C=CCN6CC[C@]43[C@@H]65)C2)C1` [Vinblastine, Dimethyl (2β,3β,4β,5α,12β,19α)-15-[(5S,9S)-5-ethyl-5-hydroxy-9-(methoxycarbonyl)-1,4,5,6,7,8,9,10-octahydro-2 H-3,7-methanoazacycloundecino [5,4-b]indol-9-yl]-3-hydroxy-16-methoxy-1-methyl-6,7-didehydroaspidospermidine3,4-dicarboxylate], the CNS status is listed as “Efflux transporter substrate”. In the case of `CC[C@]1(O)C[C@H]2CN(CCc3c([nH]c4ccccc34)[C@@](C(=O)OC)(c3cc4c(cc3OC)N(C=O)[C@H]3[C@@](O)(C(=O)OC)[C@H](OC(C)=O)[C@]5(CC)C=CCN6CC[C@]43[C@@H]65)C2)C1` [Vincristine, (3aR,3a1R,4R,5S,5aR,10bR)-Methyl 4-acetoxy-3a-ethyl-9-((5S,7S,9S)-5-ethyl-5-hydroxy-9-(methoxycarbonyl)-2,4,5,6,7,8,9,10-octahydro-1 H-3,7-methano[1]azacycloundecino[5,4-b]indol-9-yl)-6-formyl-5-hydroxy-8-methoxy3a,3a1,4,5,5a,6,11,12-octahydro-1 H-indolizino[8,1-cd]carbazole-5-carboxylate], the CNS status is given as “Efflux transporter substrate”. In the case of `COc1ccccc1N1CCN(CCN(C(=O)C2CCCCC2)c2ccccn2)CC1` [WAY-100635, N-(2-(4-(2-methoxyphenyl)piperazin-1-yl)ethyl)-N-(pyridin-2-yl)], the CNS status is listed as “Positive”. In the case of `COC(=O)[C@H]1[C@@H](c2ccc(F)cc2)C[C@@H]2CC[C@H]1N2C/C=C/I` [beta-CFT, (1R,2S,3S,5S)-methyl-3-(4-fluorophenyl)-8-((E)-3-iodoallyl)-8-azabicyclo[3.2.1]octane-2-carboxylate], the CNS status is given as “Positive”. In the case of `COC(=O)[C@H]1[C@@H](c2ccc(I)cc2)C[C@@H]2CC[C@H]1N2C` [beta-CIT, (1R,2S,3S,5S)-methyl-3-(4-iodophenyl)-8-methyl-8-azabicyclo [3.2.1]octane-2-carboxylate], the CNS status is listed as “Positive”. In the case of `CN1[C@H]2CC[C@@H]1[C@@H](c1cc(-c3ccccc3)no1)[C@@H](c1ccc(Cl)cc1)C2` [beta-CPPIT, 5-((1R,2S,3S,5S)-3-(4-chlorophenyl)-8-methyl-8-azabicyclo[3.2.1]octan-2-yl)-3-phenylisoxazole], the CNS status is given as “Positive”. In the case of `CNC(C)C(O)c1cccc(O)c1` (stereo not shown) [mHED, 3-[1-Hydroxy-2-(methylamino)propyl]phenol], the CNS status is given as “Negative”. For Teicoplanin, the CNS status is given as “Negative”.

Settings: mouse, in vivo
In the case of `COC(=O)[C@H]1[C@@H](c2ccc(I)cc2)C[C@@H]2CC[C@H]1N2C/C=C/I` [Me@IPICIT, Methyl (1R,2S,3S,5S)-3-(4-iodophenyl)-8-[(2E)-3-iodo-2-propen-1-yl]-8-azabicyclo [3.2.1]octane-2-carboxylate], the CNS status is reported as “Positive”.
